Consider 6 compounds from ChEMBL document CHEMBL1201862, “PubChem BioAssay data set” (2004).

Experiment [1] concerns the target T1, Melanin-concentrating hormone receptor 1 (Homo sapiens, UniProt Q99705). The experiment can be described thus: Late-stage fluorescence-based counterscreen for antagonists of the G-protein coupled receptor 7 (GPR7): cell-based dose response assay to identify antagonists of the melanin-concentrating hormone receptor 1 (MCHR1) Set 5. The experiment is classed as functional. For orientation: Counterscreens check selectivity or assay interference.

The target of experiment [2] is T2, Neuropeptides B/W receptor type 1 (Homo sapiens, UniProt P48145).
T2 sequence (P48145 whole entry): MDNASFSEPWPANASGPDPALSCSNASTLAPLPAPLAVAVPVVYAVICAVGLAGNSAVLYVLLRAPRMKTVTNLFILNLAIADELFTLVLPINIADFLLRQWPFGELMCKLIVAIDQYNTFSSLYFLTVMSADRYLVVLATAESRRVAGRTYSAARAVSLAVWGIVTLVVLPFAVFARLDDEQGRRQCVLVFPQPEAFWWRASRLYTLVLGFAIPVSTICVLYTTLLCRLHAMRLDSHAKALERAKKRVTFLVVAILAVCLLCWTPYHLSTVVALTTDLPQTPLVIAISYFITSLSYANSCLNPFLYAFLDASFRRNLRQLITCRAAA
The experiment can be described thus: human NPBW1 receptor blockade, IC50 – cell-based, fluorescence, dose response, set 5, late-stage follow-up (AID 588566). The class given is functional.

In experiment [3] the target is T2, Neuropeptides B/W receptor type 1. The experiment can be described thus: human NPBW1 receptor blockade, IC50 – cell-based, fluorescence, dose response, set 6, late-stage follow-up (AID 588583). The experiment is classed as functional.
In experiment [4] the target is T1, Melanin-concentrating hormone receptor 1. The experiment can be described thus: Late-stage fluorescence-based counterscreen for antagonists of the G-protein coupled receptor 7 (GPR7): cell-based dose response assay to identify antagonists of the melanin-concentrating hormone receptor 1 (MCHR1) Set 6. The class given is functional.
The test system of experiment [5] is HeLa. The experiment is described as follows: toxicity to human HeLa cells – cell-based, 48 h, plate reader, cherry-picks, cytotoxicity control, dose response (AID 504942). The class given is functional.
The target of experiment [6] is T3, Acyl-homoserine lactone acylase PvdQ (Pseudomonas aeruginosa (strain LESB58), UniProt Q9I194).
T3 sequence (Q9I194 whole entry): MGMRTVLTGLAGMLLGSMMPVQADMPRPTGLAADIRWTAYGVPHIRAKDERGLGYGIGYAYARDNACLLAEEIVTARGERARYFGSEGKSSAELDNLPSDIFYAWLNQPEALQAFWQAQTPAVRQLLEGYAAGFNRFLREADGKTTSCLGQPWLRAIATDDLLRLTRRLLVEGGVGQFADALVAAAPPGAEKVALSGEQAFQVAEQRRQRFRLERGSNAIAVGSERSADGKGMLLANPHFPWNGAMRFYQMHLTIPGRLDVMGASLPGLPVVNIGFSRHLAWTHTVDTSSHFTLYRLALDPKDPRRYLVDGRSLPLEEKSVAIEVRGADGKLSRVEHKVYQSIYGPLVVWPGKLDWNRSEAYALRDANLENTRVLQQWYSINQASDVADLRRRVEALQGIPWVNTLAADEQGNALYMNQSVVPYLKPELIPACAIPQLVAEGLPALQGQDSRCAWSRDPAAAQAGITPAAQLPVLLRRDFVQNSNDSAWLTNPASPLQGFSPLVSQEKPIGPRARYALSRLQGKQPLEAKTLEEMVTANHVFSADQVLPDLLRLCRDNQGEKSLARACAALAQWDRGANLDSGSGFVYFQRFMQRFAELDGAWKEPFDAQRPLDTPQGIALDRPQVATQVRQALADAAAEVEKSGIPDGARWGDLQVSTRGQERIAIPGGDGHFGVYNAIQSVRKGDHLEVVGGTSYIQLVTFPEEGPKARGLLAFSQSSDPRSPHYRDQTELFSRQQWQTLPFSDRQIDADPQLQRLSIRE
The experiment is described as follows: PvdQ acylase enzyme activity blockers – biochemical, fluorescence, plate reader and imaging, cherry-picks, dose response (AID 493231).

The subject of experiment [7] is BJ. The experiment can be described thus: cells. The experiment is classed as functional, cell-based. To be noted: Homo sapiens.
Experiment [8] in a line: DRD fibroblast viability loss – cell-based, non-viral oncogenic, luminescence, dose response (AID 1934). The class given is functional. To be noted: Homo sapiens.
A short description of experiment [9]: Trypanosoma cruzi growth suppression in host cells – NIH3T3 host cells, beta-gal luminescence, confirmation (AID 2044).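 Further: intracellular parasites grown in NIH/3T3 mouse fibroblasts as host cells; luminescent beta-galactosidase reporter signal from transgenic T. cruzi replicating inside host cells; inhibitors lower the luminescence signal.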 The class given is functional, cell-based.
The subject of experiment [10] is BJ. The experiment is described as follows: BJ-TERT fibroblast viability loss – cell-based, RAS-independent, luminescence, dose response (AID 1933). The experiment is classed as functional. To be noted: Homo sapiens.
A short description of experiment [11]: NIH3T3 cell viability loss – ATP luminescence, mouse fibroblasts, counter-screen, dose response (AID 2010).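 Further: cells exposed to compound for about 90 hours before reading.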 The experiment is classed as functional, cell-based.
Experiment [12] deals with Nonstructural protein 1 (Influenza A virus, UniProt Q194T2). The class given is functional, Influenza A virus (A/California/07/2009(H1N1)).
Experiment [13] deals with Streptococcus sp. 'group A'. The experiment can be described thus: Streptococcus pyogenes SK(-)GAS viability under kanamycin – luminescence, BacTiterGlo, confirmation, counter-screen for streptokinase expression inhibitor project, dose response (AID 1900). The experiment is classed as functional, organism-based.
Experiment [14] deals with T4, Polyadenylate-binding protein 1 (Homo sapiens, UniProt P11940). The experiment is described as follows: MLLE binding blockers, Cy5 peptide tracer – biochemical, fluorescence polarization, Cy5-PAM2 peptide, secondary, miRNA deadenylation inhibitor project, dose response (AID 602260). The experiment is classed as functional. The following applies: read-out: IC50_Mean.

Experiment [15] has as its system BJ. The experiment can be described thus: BJ-TERT-LT-ST fibroblast viability loss – cell-based, RAS-independent, luminescence, dose response (AID 1935).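 Further: BJ fibroblasts immortalized with TERT plus LT and ST oncogenes.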 The experiment is classed as functional. The following applies: Homo sapiens.
Experiment [16] deals with Streptococcus. The experiment is described as follows: GAS UMAA2166 growth inhibition – luminescence, BacTiterGlo, counter-screen for streptokinase expression inhibitor project, dose response (AID 1915).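 Further: potency for reduction of bacterial viability or growth.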 The class given is functional, organism-based.
Experiment [17] concerns Vero. The experiment is described as follows: viability of Vero cells under compound – cytotoxicity control for flavivirus capping enzyme inhibitors (AID 588742). The experiment is classed as functional. The following applies: Chlorocebus sabaeus.
Experiment [18] deals with T4, Polyadenylate-binding protein 1. The experiment can be described thus: MLLE domain peptide-binding blockers, IC50 – biochemical, fluorescence polarization, FITC-PAM2 peptide, dose response (AID 602259). The experiment is classed as functional. To be noted: read-out: IC50_Mean. On the technique in general: Fluorescence polarisation rises when a labelled molecule tumbles more slowly, as on binding a larger partner.

In experiment [19] the test system is Vero. The experiment can be described thus: cells. The class given is functional. The following applies: Chlorocebus sabaeus.

SMILES strings stand for the structures. The source made the active and inactive calls.

T1 sequence (Q99705 whole entry): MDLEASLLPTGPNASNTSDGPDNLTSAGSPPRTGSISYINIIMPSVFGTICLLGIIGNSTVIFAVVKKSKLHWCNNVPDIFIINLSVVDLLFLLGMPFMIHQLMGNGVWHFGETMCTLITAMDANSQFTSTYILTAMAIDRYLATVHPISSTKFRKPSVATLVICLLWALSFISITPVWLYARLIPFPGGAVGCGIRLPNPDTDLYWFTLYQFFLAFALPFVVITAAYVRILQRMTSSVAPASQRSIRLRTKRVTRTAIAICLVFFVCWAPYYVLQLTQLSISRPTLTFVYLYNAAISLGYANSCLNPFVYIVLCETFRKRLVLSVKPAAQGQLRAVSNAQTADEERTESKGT
T4 sequence (P11940 whole entry): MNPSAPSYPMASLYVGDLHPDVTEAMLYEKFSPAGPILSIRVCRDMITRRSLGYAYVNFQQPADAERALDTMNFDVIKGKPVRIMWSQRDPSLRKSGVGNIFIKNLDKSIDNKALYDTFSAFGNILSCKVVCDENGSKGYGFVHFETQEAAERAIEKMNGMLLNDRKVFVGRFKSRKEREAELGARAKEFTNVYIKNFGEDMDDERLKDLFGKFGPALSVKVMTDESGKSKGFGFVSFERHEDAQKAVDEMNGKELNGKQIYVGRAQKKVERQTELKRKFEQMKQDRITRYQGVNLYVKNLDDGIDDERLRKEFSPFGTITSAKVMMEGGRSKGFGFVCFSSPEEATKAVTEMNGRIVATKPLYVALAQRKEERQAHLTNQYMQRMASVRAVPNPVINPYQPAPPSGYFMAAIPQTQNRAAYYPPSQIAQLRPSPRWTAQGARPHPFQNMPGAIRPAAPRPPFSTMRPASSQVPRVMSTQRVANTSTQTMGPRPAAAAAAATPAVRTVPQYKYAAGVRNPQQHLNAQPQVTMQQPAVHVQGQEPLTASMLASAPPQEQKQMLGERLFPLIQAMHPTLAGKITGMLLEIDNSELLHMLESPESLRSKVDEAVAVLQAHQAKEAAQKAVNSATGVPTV
Sequence of Nonstructural protein 1 (Q194T2 whole entry): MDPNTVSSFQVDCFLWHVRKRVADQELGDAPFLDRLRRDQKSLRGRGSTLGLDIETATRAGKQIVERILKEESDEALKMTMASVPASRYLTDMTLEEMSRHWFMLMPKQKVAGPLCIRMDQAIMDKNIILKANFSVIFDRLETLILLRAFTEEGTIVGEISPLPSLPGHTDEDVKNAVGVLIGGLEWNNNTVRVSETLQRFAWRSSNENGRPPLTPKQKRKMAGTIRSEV

For the compound `CCOC(=O)C(C#N)c1ccnn(Cc2cccc3ccccc23)c1=O` (stereo not drawn), the IC50 in [1] was 15 µM (inactive); in experiment [2], 1.74 µM (active).
As for `N#CC(c1ccccn1)c1c(Cl)cnn(Cc2cccc3ccccc23)c1=O` (stereo not drawn), the IC50 in experiment [3] and in [4] was 0.564 µM (active) in each case.
`N#CC(c1ccsc1)c1c(Cl)cnn(Cc2cccc3ccccc23)c1=O` (stereo not drawn): the IC50 in [1] is 0.794 µM (active); in experiment [2], 0.325 µM (active).
Consider `N#CC(C#N)c1c(Cl)cnn(Cc2cccc3ccccc23)c1=O`, for which the IC50 in experiment [3] and in [4] was 17.4 µM (inactive) throughout.
On to `COc1ccc(/C(C#N)=C/c2cccnc2)cc1`, for which the figures for the AC50 in [5] and in [6] were 254 µM (active) and 9.73 µM (active), respectively.
In the case of `CCc1ccc2c(c1)C1(NN=C(c3ccccc3)S1)C(=O)N2` (stereo not drawn), the EC50 (in general, the concentration needed to bring the measured effect to its halfway point) in experiment [7] was 86.3 µM (active); in experiment [8] it was 49.4 µM (active); in [9] it was 0.524 µM (active); in experiment [10], 13.7 µM (inconclusive); in [11] it was 5.31 µM (active); in [13], 0.278 µM (active). In addition, the EC50 in experiment [15] is 17.7 µM (inconclusive); in [16], 1.84 µM (active). Besides, the values for the IC50 in [12], in experiment [14] and in [18] were 45.5 µM (active), > 66 µM (inactive) and > 66 µM (inactive), respectively. Moreover, the values for the 50% cytotoxic concentration (CC50) in [17] and in experiment [19] were 7.61 µM (active) and 14.9 µM (active), respectively.
